Patent US9896443B2, “Perforin inhibiting benzenesulfonamide compounds, preparation and uses thereof” (Peter MacCallum Cancer Institute, priority 2012, dated 2018)
Counter-ions that a name gives are not always drawn. Like-named read-outs stand apart in the source and are kept apart here.

How the values were obtained:
[1] = system: KHYG-1 NK cell-mediated lysis of K562 cells; assay: Inhibition of KHYG-1 NK cell-mediated lysis of K562 cells (51Cr release); assay type: cell-based; conditions: K562 target cells, Effector:Target 2:1, 4 hours at 37° C.
Procedure: Inhibition of KHYG-1 NK Cell-Mediated Lysis of K562 Cells.
Test compounds were added to KHYG-1 cells at various concentrations up to 20 µM and incubated at RT for 20 minutes. 1×10^6 K562 target cells were labelled with 75 μCi ^51Cr in 200 μl RPMI for 90 mins at 37° C., cells were washed as described above and resuspended in 5 ml RPMI+0.1% BSA. 50 μl of ^51Cr labelled K562 leukemia target cells were added to each well of the KHYG-1 plate (Effector:Target 2:1) and incubated at 37° C. for 4 hours. ^51Cr release was assayed using a Skatron Harvesting Press and radioactivity estimated on a Wallac Wizard 1470 Automatic Gamma counter (Turku, Finland). The percentage of specific cytotoxicity was calculated by the formula: […]

recombinant perforin = recombinant perforin (UniProt P10820); assay type: cell-based
Chain of recombinant perforin (P10820 whole entry): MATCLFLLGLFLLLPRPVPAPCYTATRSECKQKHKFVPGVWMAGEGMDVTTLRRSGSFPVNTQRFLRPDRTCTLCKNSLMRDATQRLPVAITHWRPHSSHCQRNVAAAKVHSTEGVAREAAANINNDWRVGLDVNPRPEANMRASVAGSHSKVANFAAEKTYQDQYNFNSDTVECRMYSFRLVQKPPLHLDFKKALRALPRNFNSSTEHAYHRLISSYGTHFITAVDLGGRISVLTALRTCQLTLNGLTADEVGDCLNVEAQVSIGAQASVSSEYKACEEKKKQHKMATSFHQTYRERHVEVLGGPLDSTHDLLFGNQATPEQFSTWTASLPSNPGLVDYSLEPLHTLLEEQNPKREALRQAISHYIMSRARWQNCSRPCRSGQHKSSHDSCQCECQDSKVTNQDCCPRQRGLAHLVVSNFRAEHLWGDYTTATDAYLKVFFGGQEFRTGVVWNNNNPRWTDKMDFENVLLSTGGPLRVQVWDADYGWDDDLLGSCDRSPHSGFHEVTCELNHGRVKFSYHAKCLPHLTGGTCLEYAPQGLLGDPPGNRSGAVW
Procedure: Inhibition of perforin-mediated lysis of Jurkat cells.
The ability of the compounds to inhibit the lysis of nucleated (Jurkat T lymphoma) cells in the presence of 0.1% BSA, as measured by release of ^51Cr was measured. Jurkat target cells were labelled by incubation in medium with 100 μCi ^51Cr for one hour. The cells were then washed three times to remove unincorporated isotope and re-suspended at 1×10^5 cells per mL in RPMI buffer supplemented with 0.1% BSA. […] Each data point was performed in triplicate and an IC50 was calculated from the range of concentrations described to above.

[2] = lysis of Jurkat T lymphoma cells by recombinant perforin, 0.1% BSA, 30 min pre-incubation, 4 hours at 37° C.; read-out: Jurkat IC50
[3] = read-out: Jurkat IC50; lysis of Jurkat T lymphoma cells by recombinant perforin, 0.1% BSA, 30 min pre-incubation, 4 hours at 37° C.

SMILES | inhibition at 20 µM ([1]; 4 h) [%] | IC50 (recombinant perforin; [2]) [µM] | also measured
O=C1NCc2cc(-c3ccc(-c4cncc(NS(=O)(=O)c5ccc(F)cc5F)c4)s3)ccc21 [Compound 48, 2,4-Difluoro-N-(5-(5-(1-oxoisoindolin-5-yl)thiophen-2-yl)pyridin-3-yl)benzenesulfonamide] | 35 |  | 
CN1Cc2cc(-c3ccc(-c4cncc(NS(=O)(=O)c5ccccc5C#N)c4)s3)ccc2C1=O [Compound 79.Na, 2-Cyano-N-(5-(5-(2-methyl-1-oxoisoindolin-5-yl)thiophen-2-yl)pyridin-3-yl)benzenesulfonamides] |  | 9.17 | 
CN1Cc2cc(-c3ccc(-c4cncc(NS(=O)(=O)c5ccc([N+](=O)[O-])cc5)c4)s3)ccc2C1=O [Compound 29, N-(5-(5-(2-Methyl-1-oxoisoindolin-5-yl)thiophen-2-yl)pyridin-3-yl)-4-nitrobenzenesulfonamide] | 48 | 2.74 | 
CN1Cc2cc(-c3ccc(-c4cnc(F)c(NS(=O)(=O)c5ccccn5)c4)s3)ccc2C1=O [Compound 90, N-(2-Fluoro-5-(5-(2-methyl-1-oxoisoindolin-5-yl)thiophen-2-yl)pyridin-3-yl)pyridine-2-sulfonamide] |  | 4.1 | 
CN1Cc2cc(-c3ccc(-c4cncc(NS(=O)(=O)c5ccc(F)cc5F)c4)s3)ccc2C1=O [Compound 1, 2,4-Difluoro-N-(5-(5-(2-methyl-1-oxoisoindolin-5-yl)thiophen-2-yl)pyridin-3-yl)benzenesulfonamide] | 46 |  | 
CN1Cc2cc(-c3ccc(-c4cncc(NS(=O)(=O)c5cccc(Cl)c5F)c4)s3)ccc2C1=O [Compound 14, 3-Chloro-2-fluoro-N-(5-(5-(2-methyl-1-oxoisoindolin-5-yl)thiophen-2-yl)pyridin-3-yl)benzenesulfonamide] |  | 13 | 
Cc1cc(F)ccc1S(=O)(=O)Nc1cncc(-c2ccc(-c3ccc4c(c3)CN(C)C4=O)s2)c1 [Compound 70, 4-Fluoro-2-methyl-N-(5-(5-(2-methyl-1-oxoisoindolin-5-yl)thiophen-2-yl)pyridin-3-yl)benzenesulphonamide] | 17.6 ± 13 | 5.53 | 
CN1Cc2cc(-c3ccc(-c4cncc(NC(=S)NC(=O)c5ccc(F)cc5)c4)s3)ccc2C1=O [Compound 68, 4-Fluoro-N-((5-(5-(2-methyl-1-oxoisoindolin-5-yl)thiophen-2-yl)pyridin-3-yl)carbamothioyl)benzamide] |  | 15.9 | 
CN1Cc2cc(-c3ccc(-c4cncc(NS(=O)(=O)c5ccc(F)c(C(F)(F)F)c5)c4)s3)ccc2C1=O [Compound 89, 4-Fluoro-N-(5-(5-(2-methyl-1-oxoisoindolin-5-yl)thiophen-2-yl)pyridin-3-yl)-3-(trifluoromethyl)benzenesulphonamide] | 59.9 ± 13 | 3.75 | 
CN1Cc2cc(-c3ccc(-c4cnc(F)c(NS(=O)(=O)c5ccc(F)cc5F)c4)s3)ccc2C1=O [Compound 39, 2,4-Difluoro-N-(2-fluoro-5-(5-(2-methyl-1-oxoisoindolin-5-yl)thiophen-2-yl)pyridin-3-yl)benzenesulphonamide] | 56 | 1.99 | 
CN1Cc2cc(-c3ccc(-c4cncc(NS(=O)(=O)c5ccc(-c6ccno6)s5)c4)s3)ccc2C1=O [Compound 76, 5-(Isoxazol-5-yl)-N-(5-(5-(2-methyl-1-oxoisoindolin-5-yl)thiophen-2-yl)pyridin-3-yl)thiophene-2-sulfonamide] | 47.5 ± 10 | 7.1 | 
O=S(=O)(Nc1cncc(-c2ccc(-c3ccc4[nH]ccc4c3)s2)c1)c1ccc(F)cc1F [Compound 71, N-(5-(5-(1H-indol-5-yl)thiophen-2-yl)pyridin-3-yl)-2,4-difluorobenzenesulfonamide] | 87.7 ± 9 |  | 
CN1Cc2cc(-c3ccc(-c4cncc(NS(=O)(=O)c5c(F)cc(F)cc5F)c4)s3)ccc2C1=O [Compound 8, 2,4,6-Trifluoro-N-(5-(5-(2-methyl-1-oxoisoindolin-5-yl)thiophen-2-yl)pyridin-3-yl)benzene-sulfonamide] | 52 | 1.76 | 
CN1Cc2cc(-c3ccc(-c4cncc(NS(=O)(=O)c5ccccc5[N+](=O)[O-])c4)s3)ccc2C1=O [Compound 28, N-(5-(5-(2-Methyl-1-oxoisoindolin-5-yl)thiophen-2-yl)pyridin-3-yl)-2-nitrobenzenesulfonamide] | 71 | 6.65 | 
Cn1ccc2cc(-c3ccc(-c4cncc(NS(=O)(=O)c5ccc(F)cc5F)c4)s3)ccc21 [Compound 72, 2,4-Difluoro-N-(5-(5-(1-methyl-1H-indol-5-yl)thiophen-2-yl)pyridin-3-yl)benzenesulfonamide] | 19 ± 17 |  | IC50 (recombinant perforin; [3]): 8.63 µM
CN1Cc2cc(-c3ccc(-c4cncc(NS(=O)(=O)c5ccccc5C(F)(F)F)c4)s3)ccc2C1=O [Compound 78, N-(5-(5-(2-Methyl-1-oxoisoindolin-5-yl)thiophen-2-yl)pyridin-3-yl)-2-(trifluoromethyl)benzenesulfonamide] | 56 ± 9 | 1.45 | 
CN1Cc2cc(-c3ccc(-c4cncc(NS(=O)(=O)c5cccc(C(F)(F)F)c5)c4)s3)ccc2C1=O [Compound 81, N-(5-(5-(2-Methyl-1-oxoisoindolin-5-yl)thiophen-2-yl)pyridin-3-yl)-3-(trifluoromethyl)benzenesulfonamides] | 37.8 ± 19 | 0.91 | 
O=C1c2ccc(-c3ccc(-c4cncc(NS(=O)(=O)c5ccc(F)cc5F)c4)s3)cc2CN1CCN1CCOCC1 [Compound 69, 2,4-Difluoro-N-(5-(5-(2-(2-morpholinoethyl)-1-oxoisoindolin-5-yl)thiophen-2-yl)pyridin-3-yl)benzenesulfonamide] |  | 17 | 
CN1Cc2cc(-c3ccc(-c4cncc(NS(=O)(=O)c5ccc([N+](=O)[O-])cc5)c4)s3)ccc2C1=O [Compound 29.Na, N-(5-(5-(2-Methyl-1-oxoisoindolin-5-yl)thiophen-2-yl)pyridin-3-yl)-4-nitrobenzenesulfonamide] |  | 3.34 | Inhibition of KHYG-1 at 20 μM (%) ([1]; 20 µM): 49%
CN1Cc2cc(-c3ccc(-c4cncc(NS(=O)(=O)c5ccc(Cl)cc5)c4)s3)ccc2C1=O [Compound 11, 4-Chloro-N-(5-(5-(2-methyl-1-oxoisoindolin-5-yl)thiophen-2-yl)pyridin-3-yl)benzenesulfonamide] |  | 5.39 | inhibition at 20 µM [1]: 17%
COc1ccc(S(=O)(=O)Nc2cncc(-c3ccc(-c4ccc5c(c4)CN(C)C5=O)s3)c2)cc1OC [Compound 21.Na, 3,4-Dimethoxy-N-(5-(5-(2-methyl-1-oxoisoindolin-5-yl)thiophen-2-yl)pyridin-3-yl)benzenesulfonamide, sodium salt] | 31 |  | 
CN1Cc2cc(-c3ccc(-c4cncc(NS(=O)(=O)c5ccc(-c6cnco6)cc5)c4)s3)ccc2C1=O [Compound 77, N-(5-(5-(2-Methyl-1-oxoisoindolin-5-yl)thiophen-2-yl)pyridin-3-yl)-4-(oxazol-5-yl)benzenesulfonamides] | 38.3 ± 5 | 3.05 | 
O=C1NCc2ccc(-c3ccc(-c4cncc(NS(=O)(=O)c5ccc(F)cc5F)c4)s3)cc21 [Compound 49, 2,4-Difluoro-N-(5-(5-(3-oxoisoindolin-5-yl)thiophen-2-yl)pyridin-3-yl)benzenesulfonamide] | 49 |  | IC50 (recombinant perforin; [3]): 13.2 µM
CN1Cc2cc(-c3ccc(-c4cncc(NS(=O)(=O)c5ccc(Br)s5)c4)s3)ccc2C1=O [Compound 87, 5-Bromo-N-(5-(5-(2-methyl-1-oxoisoindolin-5-yl)thiophen-2-yl)pyridin-3-yl)thiophene-2-sulphonamide] | 31.6 ± 6 |  | IC50 (recombinant perforin; [3]): 1.8 µM
CCOC(=O)c1ccc(S(=O)(=O)Nc2cncc(-c3ccc(-c4ccc5c(c4)CN(C)C5=O)s3)c2)cc1 [Compound 85, Ethyl 4-(N-(5-(5-(2-methyl-1-oxoisoindolin-5-yl)thiophen-2-yl)pyridin-3-yl)sulfamoyl)benzoate] |  | 19.4 | 
Cc1cc(C)n(-c2ccc(S(=O)(=O)Nc3cncc(-c4ccc(-c5ccc6c(c5)CN(C)C6=O)s4)c3)cc2)n1 [Compound 80, 4-(3,5-Dimethyl-1H-pyrazol-1-yl)-N-(5-(5-(2-methyl-1-oxoisoindolin-5-yl)thiophen-2-yl)pyridin-3-yl)benzenesulfonamides] |  | 19.1 | 
CN1Cc2cc(-c3ccc(-c4cncc(NS(=O)(=O)c5ccc(F)cc5F)c4)nc3)ccc2C1=O [Compound 83, 2,4-Difluoro-N-(5-(2-methyl-1-oxoisoindolin-5-yl)-[2,3′-bipyridin]-5′-yl)benzenesulphonamide] |  | 8.17 | 
COC(=O)c1cccc(S(=O)(=O)Nc2cncc(-c3ccc(-c4ccc5c(c4)CN(C)C5=O)s3)c2)c1 [Compound 91, Methyl 3-(N-(5-(5-(2-methyl-1-oxoisoindolin-5-yl)thiophen-2-yl)pyridin-3-yl)sulfamoyl)benzoate] |  | 7.77 | 
